The record followed here is patent US20220142995A1, “DUAL ATM AND DNA-PK INHIBITORS FOR USE IN ANTI-TUMOR THERAPY” (XRAD Therapeutics, Inc., priority 2019, published 2022).

Molecules are shown by their SMILES. Where “and” joins values, the source holds several entries; their conditions need not be identical. Equal values may be shown once. Where a name gives a salt, the structure may show the parent alone.

The target of one series is T1, DNA-PK (Homo sapiens, UniProt P78527).
T1 construct: purchased Invitrogen PR9107A
Description: DNA-PK enzyme-linked immunosorbent assay. Format: biochemical. Conditions: ATP 20 μM, GST-p53 substrate. As to the method: DNA-PK Enzyme-Linked Immunosorbent Assay:
On day one, a 96-well plate (ThermoFisher, Cat #: 442404) was coated with GST-p53 (1-101) peptide (purified by Pharmaron, BCS department) by diluting 3 μg of GST-p53 in each well with 0.1 M Na2CO3/NaHCO3 (pH 9.6). The plate was incubated overnight at 4° C. On the second day, the coating buffer was removed, and the plate was washed twice with PBST (1×PBS containing 0.1% Tween-20). The DNA-PK enzyme solution (Invitrogen, #PR9107A; the final DNA-PK concentration: 0.1 μg/mL) was then added. The compounds were serially diluted to the final maximal concentration of 100 nM (3 fold series dilution, a total of 10 doses), and an ATP solution (the final ATP concentration: 20 μM) was added to the plate. Incubate the plate at 25° C. for 1 hour. The plate was washed three times with PBST (1×PBS containing 0.1% Tween-20) and blocked with a solution of PBST and 1% BSA at 4° C. overnight. The third day, the plate was washed four times with PBST (1×PBS containing 0.1% Tween-20). Anti-phospho-p53 primary antibody (cell signaling Technology, #9286, Phospho-p53 (Ser15) (16G8) Mouse mAb) (1/1000) was added to each well. The plate was sealed, incubated 1 h at 37° C., and washed four times with PBST (1×PBS containing 0.1% Tween-20). An HRP-linked secondary antibody (Cell signaling Technology, #7076, Anti-mouse IgG, HRP-linked Antibody) (1/1000) (100 μL) was added to each well. The plate was sealed with tape, incubated 30 min at 37° C., and washed four times with PBST (1×PBS containing 0.1% Tween-20). At this time, 100 μL of TMB (Cell signaling Technology, #7004) substrate were added to each well. The plate was sealed with tape and incubated the plate 10 min at 37° C. Stop solution (Cell signaling Technology, #7002) (100 μL) was added to each well, and the plate was subjected to the absorption detection at 450 nm.

Another series addresses T2, hERG (Homo sapiens, UniProt Q12809).
T2 construct: host or cells: T-REx HEK293
Kind of series: In-vitro hERG inhibition assay (manual patch clamp, hERG-T-REx HEK 293 cells). The format is cell-based. As for the experimental part:
In-Vitro hERG Inhibition Assay:
The hERG-T-REx™ HEK 293 cells (Invitrogen, K1236) were generated by transfecting the hERG coding sequence in the Tet-regulated expression vector pT-Rex-DEST30 into cells expressing the Tet-repressor (T-Rex™ HEK293), thereby producing cells that can be induced to express high level of hERG channels. The cells were cultured in a medium containing of 85% DMEM, 10% dialyzed FBS, 0.1 mM NEAA, 25 mM HEPES, 100 U/mL Penicillin-Streptomycin, 5 μg/mL Blasticidin, and 400 μg/mL Geneticin. The cells were split using TrypLE™ Express (Gibco, 12604) about three times a week and maintained between ˜40% to ˜80% confluence. Before the assay, the cells were induced with doxycycline (Sigma, D9891) at 1 μg/mL for 48 hours. On the experiment day, the induced cells were resuspended and plated onto the coverslips at 5×10^5 cells/per 6 cm cell culture dish prior to use. The hERG channel-mediated current was acquired by manual patch clamp recording systems equipped with amplifiers (HEKA, EPC10 and Molecular Devices, multiclamp 700B) and the inverted phase contrast microscope (Olympus, IX51/71/73). Glass pipettes were prepared by micropipette puller (Sutter, P97 and Narishige, PC-10) and qualified by the pipette resistance in the range of […]. The internal pipette solution was 140 mM KCl, 2 mM MgCl2, 10 mM EGTA, 5 mM MgATP, and 10 mM HEPES (pH adjusted to 7.35 with KOH), and the external buffer was 132 mM NaCl, 4 mM KCl, 3 mM CaCl2), 0.5 mM MgCl2, 11.1 mM glucose, and 10 mM HEPES (pH adjusted to 7.35 with NaOH). The whole-cell configuration was maintained with access resistance continuously monitored (<15 M[…]). The hERG current was elicited by depolarizing membrane to +30 mV for 4.8 sec, and the voltage was set back to −50 mV for 5.2 sec to remove the inactivation and measure the deactivating tail current. The maximum amount of tail current size was used to determine hERG current amplitude. To evaluate the hERG inhibition, the blank vehicle and test articles were perfused to cells under whole-cell recording configuration through the liquid perfusion system (ALA, VM8 gravity-flow delivery system). For dose response assay, test article was applied to the cells accumulatively from low to high concentrations. A positive control (Dofetilide) was used in the experiments to ensure the performance of the cells and operations as major part of method validation. The percentage hERG current inhibition was fitted against dose concentrations to build the dose-response curve and determine IC50.

T2 sequence (Q12809 whole entry): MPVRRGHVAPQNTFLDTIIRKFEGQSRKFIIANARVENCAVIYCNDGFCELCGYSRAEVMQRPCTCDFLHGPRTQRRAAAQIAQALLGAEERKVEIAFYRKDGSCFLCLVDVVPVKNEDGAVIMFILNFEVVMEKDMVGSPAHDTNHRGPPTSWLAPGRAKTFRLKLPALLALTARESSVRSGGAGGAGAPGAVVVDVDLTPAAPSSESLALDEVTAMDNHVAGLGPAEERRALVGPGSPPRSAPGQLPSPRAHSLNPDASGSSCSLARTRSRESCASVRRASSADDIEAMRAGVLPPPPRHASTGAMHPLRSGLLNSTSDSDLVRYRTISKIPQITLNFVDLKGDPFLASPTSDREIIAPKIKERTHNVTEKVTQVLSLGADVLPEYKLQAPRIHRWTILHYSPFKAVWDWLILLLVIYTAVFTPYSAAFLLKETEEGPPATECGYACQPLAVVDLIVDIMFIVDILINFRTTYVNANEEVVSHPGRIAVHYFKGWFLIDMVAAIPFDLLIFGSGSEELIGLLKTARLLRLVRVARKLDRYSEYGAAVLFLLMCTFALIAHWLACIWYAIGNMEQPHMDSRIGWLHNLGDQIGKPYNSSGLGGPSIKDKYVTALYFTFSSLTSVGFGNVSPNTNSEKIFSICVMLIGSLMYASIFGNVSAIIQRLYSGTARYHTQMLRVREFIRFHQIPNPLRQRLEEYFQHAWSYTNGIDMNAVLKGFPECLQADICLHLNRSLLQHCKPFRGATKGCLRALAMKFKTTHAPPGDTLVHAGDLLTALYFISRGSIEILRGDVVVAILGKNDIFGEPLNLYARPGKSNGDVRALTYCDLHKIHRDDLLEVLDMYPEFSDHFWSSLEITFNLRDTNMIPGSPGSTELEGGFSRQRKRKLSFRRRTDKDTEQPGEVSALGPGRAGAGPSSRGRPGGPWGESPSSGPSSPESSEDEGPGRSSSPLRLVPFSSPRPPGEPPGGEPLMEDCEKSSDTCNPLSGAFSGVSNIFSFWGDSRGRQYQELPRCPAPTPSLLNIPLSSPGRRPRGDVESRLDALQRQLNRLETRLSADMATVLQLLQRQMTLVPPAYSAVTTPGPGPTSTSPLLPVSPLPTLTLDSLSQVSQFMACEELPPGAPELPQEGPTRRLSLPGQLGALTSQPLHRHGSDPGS

Consider `CC(C)NCCOc1ncc(-c2cc3c(cc2F)ncc2c3[C@]3(C[C@H](OCc4ccccc4)C3)C(=O)N2C)cc1NS(C)(=O)=O` [Compound 572, cis-N-(5-(3-(Benzyloxy)-7′-fluoro-3′-methyl-2′-oxo-2′,3′-dihydrospiro[cyclobutane-1,1′-pyrrolo[2,3-c]quinolin]-8′-yl)-2-(2-(isopropylamino)ethoxy)pyridin-3-yl)methanesulfonamide], for which the IC50 (usually the concentration that gives 50% inhibition) worked out at 0.32 nM on DNA-PK and 7.5 µM on hERG (tail current).
The like results for `CC(C)NCCOc1ncc(-c2cc3c(cc2F)ncc2c3[C@]3(C[C@@H](OCc4ccccc4)C3)C(=O)N2C)cc1NS(C)(=O)=O` [Compound 567, trans-N-(5-(3-(Benzyloxy)-7′-fluoro-3′-methyl-2′-oxo-2′,3′-dihydrospiro[cyclobutane-1,1′-pyrrolo[2,3-c]quinolin]-8′-yl)-2-(2-(isopropylamino)ethoxy)pyridin-3-yl)methanesulfonamide] were, in that order, 2.7 nM and 5.5 µM.
`CC(C)NCCOc1ncc(-c2cc3c4c(cnc3cc2F)N(C)C(=O)C42CN(C(C)C)C2)cc1NS(C)(=O)=O` [Compound 571, N-(5-(7′-Fluoro-1-isopropyl-3′-methyl-2′-oxo-2′,3′-dihydrospiro[azetidine-3,1′-pyrrolo[2,3-c]quinolin]-8′-yl)-2-(2-(isopropylamino)ethoxy)pyridin-3-yl)methanesulfonamide]: the IC50 is 0.67 nM and 0.94 nM on DNA-PK; 5.6 µM on hERG (tail current).
Take `CC(C)NCCOc1ncc(-c2cc3c4c(cnc3cc2F)N(C)C(=O)C42CCC2)cc1NS(=O)(=O)C(C)C` [Compound 568, N-(5-(7′-Fluoro-3′-methyl-2′-oxo-2′,3′-dihydrospiro[cyclobutane-1,1′-pyrrolo[2,3-c]quinolin]-8′-yl)-2-(2-(isopropylamino)ethoxy)pyridin-3-yl)propane-2-sulfonamide]: the IC50 at DNA-PK came out at 0.79 nM; against hERG (tail current) it was 14 µM.
As to `CC(C)NCCOc1ncc(-c2cc3c4c(cnc3cc2F)N(C)C(=O)C42CCC2)cc1NS(C)(=O)=O` [Compound 569, N-(5-(7′-Fluoro-3′-methyl-2′-oxo-2′,3′-dihydrospiro[cyclobutane-1,1′-pyrrolo[2,3-c]quinolin]-8′-yl)-2-(2-(isopropylamino)ethoxy)pyridin-3-yl)methanesulfonamide], the IC50 on DNA-PK was 0.63 nM; against hERG (human, hERG-T-REx HEK 293 cells expressing hERG, pH 7.35, tail current), over 30 µM.
In the case of `CC[C@H]1C[C@]2(C1)C(=O)N(C)c1cnc3cc(F)c(-c4cnc(OCCNC(C)C)c(NS(C)(=O)=O)c4)cc3c12` [Compound 573, cis-N-(5-(3-Ethyl-7′-fluoro-3′-methyl-2′-oxo-2′,3′-dihydrospiro[cyclobutane-1,1′-pyrrolo[2,3-c]quinolin]-8′-yl)-2-(2-(isopropylamino)ethoxy)pyridin-3-yl)methanesulfonamide], the IC50 came to 0.3 nM on DNA-PK and 3 µM against hERG (tail current).
Turning to `CC[C@H]1C[C@@]2(C1)C(=O)N(C)c1cnc3cc(F)c(-c4cnc(OCCNC(C)C)c(NS(C)(=O)=O)c4)cc3c12` [Compound 566, trans-N-(5-(3-Ethyl-7′-fluoro-3′-methyl-2′-oxo-2′,3′-dihydrospiro[cyclobutane-1,1′-pyrrolo[2,3-c]quinolin]-8′-yl)-2-(2-(isopropylamino)ethoxy)pyridin-3-yl)methanesulfonamide], the IC50 on DNA-PK was determined as 1.03 nM; against hERG (tail current), 2.1 µM.
The like results for `CN1C(=O)C2(CCC2)c2c1cnc1ccc(-c3cnc(N4CC(N(C)C)C4)c(NS(C)(=O)=O)c3)cc21` [Compound 574, N-(2-(3-(Dimethylamino)azetidin-1-yl)-5-(3′-methyl-2′-oxo-2′,3′-dihydrospiro[cyclobutane-1,1′-pyrrolo[2,3-c]quinolin]-8′-yl)pyridin-3-yl)methanesulfonamide hydrochloride] were, in that order, 1.03 nM and over 30 µM.
Regarding `CCS(=O)(=O)Nc1cc(-c2cc3c4c(cnc3cc2F)N(C)C(=O)C42CCC2)cnc1OCCNC(C)C` [Compound 570, N-(5-(7′-Fluoro-3′-methyl-2′-oxo-2′,3′-dihydrospiro[cyclobutane-1,1′-pyrrolo[2,3-c]quinolin]-8′-yl)-2-(2-(isopropylamino)ethoxy)pyridin-3-yl)ethanesulfonamide], the IC50 is 0.63 nM on DNA-PK and 10.5 µM on hERG (tail current).
